# In PubChem BioAssay (NCI):
#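 Method: 48-hour compound exposure of cells in 96-well plates, five concentrations, linear interpolation of endpoints. GI50 is the concentration that inhibits growth by half. TGI denotes the concentration required for complete inhibition of growth.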
# What was measured:
# Assay in all cases: NCI tumour cell line growth inhibition, 48 h
# SK-MEL-2 melanoma = test system: SK-MEL-2 melanoma
# OVCAR-4 ovarian = test system: OVCAR-4 ovarian
# HT29 colon = test system: HT29 colon
# SF-295 CNS = test system: SF-295 CNS
# M14 melanoma = test system: M14 melanoma
# HCT-116 colon = test system: HCT-116 colon
# HCT-15 colon = test system: HCT-15 colon
# RPMI-8226 leukemia = test system: RPMI-8226 leukemia
# HCC-2998 colon = test system: HCC-2998 colon
smiles,measurement,setting,value
CCN(CC)CCCn1cnc2ncccc2c1=O,TGI,SK-MEL-2 melanoma,> 100 µM
same,TGI,OVCAR-4 ovarian,> 100 µM
same,TGI,HT29 colon,> 100 µM
same,TGI,SF-295 CNS,> 100 µM
same,TGI,M14 melanoma,> 100 µM
same,TGI,HCT-116 colon,> 100 µM
Cc1noc2cccc(OCc3ccccc3)c12,TGI,SK-MEL-2 melanoma,94.5 µM
same,TGI,OVCAR-4 ovarian,> 100 µM
same,TGI,HCT-15 colon,> 100 µM
same,TGI,HT29 colon,> 100 µM
same,TGI,SF-295 CNS,> 100 µM
same,TGI,M14 melanoma,> 100 µM
same,TGI,HCT-116 colon,> 100 µM
same,TGI,RPMI-8226 leukemia,> 100 µM
CCOC(=O)N1C2C=C(C)C(ON2C(=O)c2ccccc2)C2C(C)C(=O)N21 (stereo not given),TGI,SK-MEL-2 melanoma,> 100 µM
same,TGI,OVCAR-4 ovarian,> 100 µM
same,TGI,HCT-15 colon,> 100 µM
same,TGI,HT29 colon,> 100 µM
same,TGI,SF-295 CNS,> 100 µM
same,TGI,M14 melanoma,> 100 µM
same,TGI,HCT-116 colon,> 100 µM
same,TGI,HCC-2998 colon,> 100 µM
same,TGI,RPMI-8226 leukemia,> 100 µM
O=c1cc(-c2ccccc2)oc2cc(O)c(O)c(O)c12,GI50,SK-MEL-2 melanoma,53.9 µM
same,TGI,SK-MEL-2 melanoma,> 100 µM
same,GI50,OVCAR-4 ovarian,47.1 µM
same,TGI,OVCAR-4 ovarian,> 100 µM
same,GI50,HCT-15 colon,8.25 µM
same,TGI,HCT-15 colon,58.8 µM
same,GI50,HT29 colon,42.7 µM
same,TGI,HT29 colon,> 100 µM
same,GI50,SF-295 CNS,11.7 µM
same,TGI,SF-295 CNS,46.4 µM
same,GI50,M14 melanoma,22.9 µM
same,TGI,M14 melanoma,92.2 µM
same,GI50,HCT-116 colon,11.1 µM
same,TGI,HCT-116 colon,31.8 µM
same,GI50,HCC-2998 colon,15 µM
same,TGI,HCC-2998 colon,37.9 µM
same,GI50,RPMI-8226 leukemia,9.27 µM
same,TGI,RPMI-8226 leukemia,> 100 µM
COc1ccc2c(c1)C(=O)N1CCOC1C2C(=O)O (stereo not given),TGI,OVCAR-4 ovarian,> 100 µM
same,TGI,HCT-15 colon,> 100 µM
same,TGI,HT29 colon,> 100 µM
same,TGI,SF-295 CNS,29.8 µM
same,TGI,M14 melanoma,> 100 µM
same,TGI,HCT-116 colon,> 100 µM
same,TGI,HCC-2998 colon,> 100 µM
same,TGI,RPMI-8226 leukemia,> 100 µM
C/C(=N\NC(N)=S)c1cc(C)c(C)cc1C,TGI,SK-MEL-2 melanoma,> 100 µM
same,TGI,OVCAR-4 ovarian,> 100 µM
same,TGI,HCT-15 colon,> 100 µM
same,TGI,HT29 colon,47.6 µM
same,TGI,SF-295 CNS,> 100 µM
same,TGI,M14 melanoma,> 100 µM
same,TGI,HCT-116 colon,> 100 µM
same,TGI,HCC-2998 colon,> 100 µM
same,TGI,RPMI-8226 leukemia,> 100 µM
C/C=C/C1=C(Cl)C(=O)[C@@H](Cl)[C@@]1(O)C(=O)OC,TGI,SK-MEL-2 melanoma,7.56 µM
same,TGI,OVCAR-4 ovarian,5.59 µM
same,TGI,HCT-15 colon,4.43 µM
same,TGI,HT29 colon,15.4 µM
same,TGI,SF-295 CNS,27.9 µM
same,TGI,M14 melanoma,11.9 µM
same,TGI,HCT-116 colon,11.7 µM
same,TGI,HCC-2998 colon,8.84 µM
same,TGI,RPMI-8226 leukemia,29 µM
CC(=O)N1c2ccccc2C2=CC3C4C(=O)N(c5ccccc5)C(=O)C4C21C1C(=O)N(c2ccccc2)C(=O)C31 (stereo not given),TGI,SK-MEL-2 melanoma,56.2 µM
same,TGI,HCT-15 colon,> 100 µM
same,TGI,HT29 colon,> 100 µM
same,TGI,SF-295 CNS,39.1 µM
same,TGI,HCT-116 colon,> 100 µM
same,TGI,HCC-2998 colon,> 100 µM
CC(=O)Oc1cc(C)c2c(c1OC(C)=O)CC1(O2)[C@@H](C)CCC2[C@@]3(C)CC[C@H](OC(C)=O)C(C)(C)C3CC[C@]21C (stereo not given in full),TGI,HCT-15 colon,13 µM
same,TGI,HT29 colon,19.6 µM
same,TGI,SF-295 CNS,16.2 µM
same,TGI,M14 melanoma,18.7 µM
same,TGI,HCT-116 colon,13.3 µM
same,TGI,HCC-2998 colon,19.2 µM
same,TGI,RPMI-8226 leukemia,> 100 µM
